Laboratory results as given in patent US20150197497A1, “SELECTIVE INHIBITORS OF HISTONE DEACETYLASE ISOFORM 6 AND METHODS THEREOF” (DANA-FARBER CANCER INSTITUTE, INC., priority 2011, published 2015).

Assays:
[1] = molecular target: T1, HDAC8 (Homo sapiens, UniProt Q9BY41); assay: In vitro HDAC enzyme inhibition assay, HDAC8; format: biochemical; conditions: for HDAC8/HDAC6 in vitro selectivity: ratio of IC50 for HDAC8 relative to that of HDAC6; for IC50: recombinant full-length HDAC8, substrate MAZ1675 282 μM
T1 construct: Recombinant, full-length HDAC protein (BPS Biosciences) was incubated with fluorophore conjugated substrate; purchased BPS Biosciences
T1 sequence (Q9BY41 1-377): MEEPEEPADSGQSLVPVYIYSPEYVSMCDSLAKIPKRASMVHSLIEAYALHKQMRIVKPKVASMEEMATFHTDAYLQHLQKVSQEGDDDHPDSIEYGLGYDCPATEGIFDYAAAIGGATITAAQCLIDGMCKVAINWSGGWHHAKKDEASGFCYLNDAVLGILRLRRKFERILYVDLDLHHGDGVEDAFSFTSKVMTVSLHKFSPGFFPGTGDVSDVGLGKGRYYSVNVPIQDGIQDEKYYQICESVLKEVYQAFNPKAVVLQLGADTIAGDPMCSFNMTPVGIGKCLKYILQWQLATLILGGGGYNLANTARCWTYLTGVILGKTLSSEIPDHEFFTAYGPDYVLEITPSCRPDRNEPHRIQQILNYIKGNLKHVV
Experimental: (§1) In vitro Histone Deacetylase enzyme assays were performed using Class I (isoforms: HDAC1, HDAC2, HDAC3 and HDAC8), class IIa (isoforms: HDAC4, HDAC5, HDAC7 and HDAC9) and class IIb (isoform HDAC6).
(§2) HDAC activities were determined in vitro with an optimized homogenous assay performed in a 384-well plate. Recombinant, full-length HDAC protein (BPS Biosciences) was incubated with fluorophore conjugated substrate, MAZ1600 and MAZ1675, at Km=[S]. […] Reactions were performed in assay buffer (50 mM HEPES, 100 mM KCl, 0.001% Tween-20, 0.05% BSA, 200 μM tris(2-carboxyethyl)phosphine (TCEP), pH 7.4) and followed for fluorogenic release of 7-amino-4-methylcoumarin from substrate upon deacetylase and trypsin enzymatic activity. Fluorescence measurements were obtained every five minutes using a multilabel plate reader and plate-stacker (Envision; Perkin-Elmer). Each plate was analyzed by plate repeat, and the first derivative within the linear range was imported into analytical software (Spotfire DecisionSite and GraphPad Prism). Replicate experimental data from incubations with inhibitor were normalized to controls.

[2] = molecular target: T2, HDAC9 (Homo sapiens, UniProt Q9UKV0); assay: In vitro HDAC enzyme inhibition assay, HDAC9; format: biochemical; conditions: for HDAC9/HDAC6 in vitro selectivity: ratio of IC50 for HDAC9 relative to that of HDAC6; for IC50: recombinant full-length HDAC9, substrate MAZ1675 26 μM; for selectivity toward HDAC6 compared to HDAC9 (in words): tested in vitro
T2 construct: Recombinant, full-length HDAC protein (BPS Biosciences) was incubated with fluorophore conjugated substrate; purchased BPS Biosciences
Experimental: as §1, §2

[3] = test system: acetylated tubulin; assay: High-content image analysis of induction of acetylated tubulin in A549 cells; conditions: for EC50: Homo sapiens, A549, 8 h, read-out: EC50 for half-maximal induction of acetylated tubulin (AcTubulin); for AcHistone/AcTubulin in cell selectivity toward HDAC6: ratio of EC50 acetylated histone to EC50 acetylated tubulin
[4] = molecular target: T3, HDAC7 (Homo sapiens, UniProt Q8WUI4); assay: In vitro HDAC enzyme inhibition assay, HDAC7; format: biochemical; conditions: for HDAC7/HDAC6 in vitro selectivity: ratio of IC50 for HDAC7 relative to that of HDAC6; for IC50: recombinant full-length HDAC7, substrate MAZ1675 22 μM
T3 construct: Recombinant, full-length HDAC protein (BPS Biosciences) was incubated with fluorophore conjugated substrate; purchased BPS Biosciences
T3 sequence (Q8WUI4 1-952): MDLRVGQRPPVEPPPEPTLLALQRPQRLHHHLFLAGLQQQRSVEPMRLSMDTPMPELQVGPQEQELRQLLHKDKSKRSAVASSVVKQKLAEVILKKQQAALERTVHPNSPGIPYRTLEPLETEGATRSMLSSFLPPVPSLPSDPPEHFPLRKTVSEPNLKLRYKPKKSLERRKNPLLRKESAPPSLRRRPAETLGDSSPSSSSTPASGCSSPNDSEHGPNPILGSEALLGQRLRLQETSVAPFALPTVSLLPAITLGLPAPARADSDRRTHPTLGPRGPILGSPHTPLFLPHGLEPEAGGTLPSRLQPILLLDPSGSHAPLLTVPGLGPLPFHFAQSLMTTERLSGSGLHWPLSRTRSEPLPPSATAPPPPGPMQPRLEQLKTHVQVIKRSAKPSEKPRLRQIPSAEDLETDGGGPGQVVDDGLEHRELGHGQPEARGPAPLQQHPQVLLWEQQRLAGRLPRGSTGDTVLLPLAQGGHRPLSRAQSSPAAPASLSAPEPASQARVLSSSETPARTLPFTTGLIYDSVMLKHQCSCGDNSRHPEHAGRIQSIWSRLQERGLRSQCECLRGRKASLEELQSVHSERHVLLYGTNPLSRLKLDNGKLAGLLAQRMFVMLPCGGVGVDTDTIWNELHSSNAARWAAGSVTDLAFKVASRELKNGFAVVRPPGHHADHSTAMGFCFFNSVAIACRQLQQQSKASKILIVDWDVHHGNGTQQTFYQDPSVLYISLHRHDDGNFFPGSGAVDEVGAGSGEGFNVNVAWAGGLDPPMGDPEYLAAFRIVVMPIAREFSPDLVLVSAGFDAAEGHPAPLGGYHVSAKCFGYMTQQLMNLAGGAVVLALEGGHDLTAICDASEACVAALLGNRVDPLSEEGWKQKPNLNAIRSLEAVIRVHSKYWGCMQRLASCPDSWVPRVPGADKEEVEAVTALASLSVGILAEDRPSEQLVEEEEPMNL
Experimental: as §1, §2

[5] = molecular target: T4, HDAC3 (Homo sapiens, UniProt O15379); assay: In vitro HDAC enzyme inhibition assay, HDAC3; format: biochemical; conditions: for HDAC3/HDAC6 in vitro selectivity: ratio of IC50 for HDAC3 relative to that of HDAC6; for IC50: recombinant full-length HDAC3, substrate MAZ1600 9 μM
T4 construct: Recombinant, full-length HDAC protein (BPS Biosciences) was incubated with fluorophore conjugated substrate; purchased BPS Biosciences
Experimental: as §1, §2

[6] = molecular target: T5, HDAC2 (Homo sapiens, UniProt Q92769); assay: In vitro HDAC enzyme inhibition assay, HDAC2; format: biochemical; conditions: for HDAC2/HDAC6 in vitro selectivity: ratio of IC50 for HDAC2 relative to that of HDAC6; for IC50: recombinant full-length HDAC2, substrate MAZ1600 22 μM
T5 construct: Recombinant, full-length HDAC protein (BPS Biosciences) was incubated with fluorophore conjugated substrate; purchased BPS Biosciences
Experimental: as §1, §2

T5 sequence (Q92769 whole entry): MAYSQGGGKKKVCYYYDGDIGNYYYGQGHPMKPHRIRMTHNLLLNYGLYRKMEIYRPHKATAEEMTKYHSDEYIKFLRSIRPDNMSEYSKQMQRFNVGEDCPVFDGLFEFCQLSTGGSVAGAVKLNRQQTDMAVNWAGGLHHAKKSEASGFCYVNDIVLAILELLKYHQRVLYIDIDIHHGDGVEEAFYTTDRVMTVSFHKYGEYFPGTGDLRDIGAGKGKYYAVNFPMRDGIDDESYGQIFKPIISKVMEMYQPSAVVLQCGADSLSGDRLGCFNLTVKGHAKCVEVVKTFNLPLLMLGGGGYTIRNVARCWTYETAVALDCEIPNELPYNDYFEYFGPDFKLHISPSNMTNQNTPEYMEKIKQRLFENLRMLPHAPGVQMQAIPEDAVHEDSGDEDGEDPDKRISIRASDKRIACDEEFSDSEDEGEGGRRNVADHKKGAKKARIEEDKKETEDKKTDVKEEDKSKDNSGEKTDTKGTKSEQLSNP
T2 sequence (Q9UKV0 whole entry): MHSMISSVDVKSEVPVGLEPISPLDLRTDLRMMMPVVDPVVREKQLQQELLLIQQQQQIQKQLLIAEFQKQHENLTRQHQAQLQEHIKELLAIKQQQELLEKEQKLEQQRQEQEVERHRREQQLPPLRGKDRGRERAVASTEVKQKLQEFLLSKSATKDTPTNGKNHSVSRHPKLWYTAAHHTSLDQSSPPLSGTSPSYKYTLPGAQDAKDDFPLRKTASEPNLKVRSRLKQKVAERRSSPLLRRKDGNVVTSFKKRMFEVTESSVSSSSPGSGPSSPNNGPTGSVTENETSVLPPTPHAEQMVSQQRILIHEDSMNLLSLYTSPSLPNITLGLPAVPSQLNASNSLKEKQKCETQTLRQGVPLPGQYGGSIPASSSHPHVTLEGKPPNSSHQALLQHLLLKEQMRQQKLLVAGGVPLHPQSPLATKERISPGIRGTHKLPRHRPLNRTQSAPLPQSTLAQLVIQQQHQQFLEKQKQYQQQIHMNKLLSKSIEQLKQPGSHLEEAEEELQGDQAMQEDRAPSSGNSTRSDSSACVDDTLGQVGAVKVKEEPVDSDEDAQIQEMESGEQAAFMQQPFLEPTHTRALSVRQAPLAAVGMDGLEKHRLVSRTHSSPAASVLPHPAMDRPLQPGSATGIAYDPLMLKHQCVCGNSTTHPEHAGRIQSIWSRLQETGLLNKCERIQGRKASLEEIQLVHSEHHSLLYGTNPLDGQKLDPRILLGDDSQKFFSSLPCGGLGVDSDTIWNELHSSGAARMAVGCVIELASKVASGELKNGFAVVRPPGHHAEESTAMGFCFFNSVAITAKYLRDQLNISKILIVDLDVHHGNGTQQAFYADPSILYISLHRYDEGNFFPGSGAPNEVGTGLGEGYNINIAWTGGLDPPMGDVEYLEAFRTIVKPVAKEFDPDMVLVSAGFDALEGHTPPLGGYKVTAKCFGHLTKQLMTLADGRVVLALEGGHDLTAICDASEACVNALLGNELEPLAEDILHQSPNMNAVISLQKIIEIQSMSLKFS
T4 sequence (O15379 whole entry): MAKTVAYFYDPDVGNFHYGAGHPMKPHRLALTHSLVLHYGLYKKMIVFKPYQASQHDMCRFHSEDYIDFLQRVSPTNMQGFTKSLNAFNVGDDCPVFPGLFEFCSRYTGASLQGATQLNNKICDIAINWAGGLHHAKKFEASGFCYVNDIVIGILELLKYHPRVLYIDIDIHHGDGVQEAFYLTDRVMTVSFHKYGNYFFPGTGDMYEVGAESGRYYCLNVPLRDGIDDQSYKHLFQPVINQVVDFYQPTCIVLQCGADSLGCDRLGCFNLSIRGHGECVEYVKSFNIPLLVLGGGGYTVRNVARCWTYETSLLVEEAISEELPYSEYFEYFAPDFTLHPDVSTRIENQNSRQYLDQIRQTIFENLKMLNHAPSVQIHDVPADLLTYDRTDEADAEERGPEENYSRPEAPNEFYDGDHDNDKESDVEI
T4 sequence (Q9Y618 395-489 partner limits assumed): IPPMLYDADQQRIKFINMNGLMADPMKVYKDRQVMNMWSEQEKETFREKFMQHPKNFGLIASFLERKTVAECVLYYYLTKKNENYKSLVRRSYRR

SMILES | HDAC8/HDAC6 in vitro selectivity [1] | IC50 [1] | HDAC9/HDAC6 in vitro selectivity [2] | IC50 [2] | EC50 [3] | AcHistone/AcTubulin in cell selectivity toward HDAC6 ([3]; A549 cells) | HDAC7/HDAC6 in vitro selectivity [4] | IC50 [4] | HDAC3/HDAC6 in vitro selectivity [5] | IC50 [5] | HDAC2/HDAC6 in vitro selectivity [6] | IC50 [6] | selectivity toward HDAC6 compared to HDAC9 (in words) [2] | levels of acetylated tubulin, dose response (in words) ([3]; A549 cells, FIG. 11)
O=C(NO)c1ccc(Cn2c(C(F)(F)F)nc3cc(Br)ccc32)cc1 [A5, 4-((5-bromo-2-(trifluoromethyl)-1H-benzo[d]imidazol-l-yl)methyl)-N-hydroxybenzamide] | 3501 | 1080 nM | 2420 | 750 nM | 190 nM | 10.17 | 735 | 228 nM | 2529 | 784 nM | 471 | 146 nM |  | 
COc1ccc2c(c1)[nH]c(=O)n2Cc1ccc(C(=O)NO)cc1 [B7, N-hydroxy-4-((5-methoxy-2-oxo-2,3-dihydro-1H-benzo[d]imidazol-1-yl)methyl)benzamide] | 21403 | 551 nM | 47920 | 1230 nM | 154 nM | 10.013 | 15934 | 410 nM | 1236 | 31.8 nM | 991 | 25.5 nM | exceptionally high selectivity (Inhibitors with in vitro selectivity values for HDAC6 of at least 30,000 are considered to have exceptionally high selectivity toward HDAC6) | 
COc1ccc2c(c1)nc(C(F)(F)F)n2Cc1ccc(C(=O)NO)cc1 [A6, N-hydroxy-4-((5-methoxy-2-(trifluoromethyl)-1H-benzo[d]imidazol-1-yl)methyl)benzamide] | 3927 | 1540 nM | 1871 | 733 nM | 212 nM | 12.2081 | 1058 | 414 nM | 2067 | 810 nM | 522 | 205 nM |  | 
Cc1ccc2c(c1)ncn2Cc1ccc(C(=O)NO)cc1 [A8, N-hydroxy-4-((5-methyl-1H-benzo[d]imidazol-1-yl)methyl)benzamide] | 2847 | 1080 nM | 5975 | 2280 nM | 105 nM | 0.7591 | 1098 | 418 nM | 1596 | 608 nM | 762 | 290 nM |  | 
O=C(NO)c1ccc(Cn2nnc3cc(F)ccc32)cc1 [C3, 4-((5-fluoro-1H-benzo[d][1,2,3]triazol-1-yl)methyl)-N-hydroxybenzamide] | 28870 | 759 nM | 62138 | 1630 nM | 144 nM | 10.4517 | 21126 | 555 nM | 19646 | 516 nM | 10108 | 266 nM | exceptionally high selectivity (Inhibitors with in vitro selectivity values for HDAC6 of at least 30,000 are considered to have exceptionally high selectivity toward HDAC6) | 
O=C(NO)c1ccc(Cn2cnc3ccccc32)cc1 [A7] | 6573 | 643 nM | 16631 | 1630 nM | 159 nM | 1.459 | 2606 | 255 nM | 4791 | 469 nM | 1853 | 181 nM |  | 
O=C(NO)c1ccc(Cn2nnc3cc(Cl)ccc32)cc1 [C4, 4-((5-chloro-1H-benzo[d][1,2,3]triazol-1-yl)methyl)-N-hydroxybenzamide] | 11132 | 615 nM | 26037 | 1440 nM | 1920 nM | 3.137 | 7608 | 420 nM | 3920 | 216 nM | 2562 | 141 nM |  | 
O=C(NO)c1ccc(Cn2c(C(F)(F)F)nc3ccccc32)cc1 [A1, N-hydroxy-4-((2-(trifluoromethyl)-1H-benzo[d]imidazol-1-yl)methyl)benzamide] | 3764 | 1780 nM | 2167 | 1020 nM | 452 nM | 14.01 | 255 | 121 nM | 3791 | 1790 nM | 1230 | 581 nM |  | dose-dependent increase
O=C(NO)c1ccc(Cn2c(=O)[nH]c3cc(Cl)ccc32)cc1 [B4, 4-((5-chloro-2-oxo-2,3-dihydro-1H-benzo[d]imidazol-1-yl)methyl)-N-hydroxybenzamide] | 6673 | 169 nM | 16475 | 416 nM | 80.5 nM | 5.217 | 3153 | 79.6 nM | 353 | 8.92 nM | 210 | 5.3 nM |  | 
COc1ccc2c(c1)ncn2Cc1ccc(C(=O)NO)cc1 [A12, N-hydroxy-4-((5-methoxy-1H-benzo[d]imidazol-1-yl)methyl)benzamide] | 6543 | 1420 nM | 10933 | 2370 nM | 221 nM | 0.4738 | 4070 | 883 nM | 2293 | 497 nM | 1125 | 244 nM |  | 
